According to patent US20120316186A1, “DEAZAPURINES USEFUL AS INHIBITORS OF JANUS KINASES” (priority 2006, published 2012):
pKi: −log10 of the molar value.

Key:
JAK3 = target: T1, JAK3 (Homo sapiens, UniProt P52333); assay: JAK3 Inhibition Assay; assay type: biochemical; settings: 1 μM poly(Glu)4Tyr, 5 μM ATP, 1 nM JAK3, 25° C.; read-out: JAK3 enzyme inhibition data (Ki)
T1 sequence (P52333 1-1124): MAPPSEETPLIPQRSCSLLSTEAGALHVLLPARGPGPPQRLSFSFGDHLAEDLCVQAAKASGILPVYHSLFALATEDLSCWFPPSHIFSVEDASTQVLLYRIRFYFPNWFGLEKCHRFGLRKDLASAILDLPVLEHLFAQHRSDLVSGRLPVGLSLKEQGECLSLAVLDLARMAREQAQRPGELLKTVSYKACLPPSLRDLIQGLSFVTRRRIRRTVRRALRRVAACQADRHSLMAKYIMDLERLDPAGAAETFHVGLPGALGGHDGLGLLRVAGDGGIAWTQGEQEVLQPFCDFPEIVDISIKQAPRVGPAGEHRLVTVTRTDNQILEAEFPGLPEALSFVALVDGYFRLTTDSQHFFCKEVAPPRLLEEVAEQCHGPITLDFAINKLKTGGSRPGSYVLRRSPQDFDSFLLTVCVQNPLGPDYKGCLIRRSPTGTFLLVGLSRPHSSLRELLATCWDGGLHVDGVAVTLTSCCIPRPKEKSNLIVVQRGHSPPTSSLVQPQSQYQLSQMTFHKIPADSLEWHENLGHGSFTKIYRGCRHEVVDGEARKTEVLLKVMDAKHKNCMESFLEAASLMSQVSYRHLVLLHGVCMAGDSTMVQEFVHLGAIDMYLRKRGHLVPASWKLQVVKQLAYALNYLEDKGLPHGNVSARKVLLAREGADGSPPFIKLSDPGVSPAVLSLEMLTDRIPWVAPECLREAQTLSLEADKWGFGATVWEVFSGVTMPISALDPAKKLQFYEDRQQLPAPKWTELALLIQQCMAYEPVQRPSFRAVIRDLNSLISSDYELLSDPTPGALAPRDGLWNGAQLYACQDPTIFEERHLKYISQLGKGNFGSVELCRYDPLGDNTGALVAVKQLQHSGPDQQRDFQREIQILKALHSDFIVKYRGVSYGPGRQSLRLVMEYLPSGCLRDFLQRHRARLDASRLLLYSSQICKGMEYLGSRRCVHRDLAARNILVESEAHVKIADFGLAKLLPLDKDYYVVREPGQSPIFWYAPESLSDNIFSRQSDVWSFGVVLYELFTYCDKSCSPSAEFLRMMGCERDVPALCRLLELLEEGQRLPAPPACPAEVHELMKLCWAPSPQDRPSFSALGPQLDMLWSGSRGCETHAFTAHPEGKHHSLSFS
Protocol: (§1) Compounds were screened for their ability to inhibit JAK3 using the assay shown below. Reactions were carried out in a kinase buffer containing 100 mM HEPES (pH 7.4), 1 mM DTT, 10 mM MgCl2, 25 mM NaCl, and 0.01% BSA. Substrate concentrations in the assay were 5 μM ATP (200 uCi/μmole ATP) and 1 μM poly(Glu)4Tyr. Reactions were carried out at 25° C. and 1 nM JAK3.
(§2) To each well of a 96 well polycarbonate plate was added 1.5 μl of a candidate JAK3 inhibitor along with 50 μl of kinase buffer containing 2 μM poly(Glu)4Tyr and 10 μM ATP. This was then mixed and 50 μl of kinase buffer containing 2 nM JAK3 enzyme was added to start the reaction. After 20 minutes at room temperature (25° C.), the reaction was stopped with 50 μl of 20% trichloroacetic acid (TCA) that also contained 0.4 mM ATP. The entire contents of each well were then transferred to a 96 well glass fiber filter plate using a TomTek Cell Harvester. After washing, 60 μl of scintillation fluid was added and ^33P incorporation detected on a Perkin Elmer TopCount.

JAK2 = JAK2 (Homo sapiens, UniProt O60674); assay: JAK2 Inhibition Assay; assay type: biochemical; settings: 15 μM poly(Glu)4Tyr, 12 μM ATP; read-out: JAK2 enzyme inhibition data (Ki)
Protocol: as §1, §2
The assays were as described above in Example 36 except that JAK-2 enzyme was used, the final poly(Glu)4Tyr concentration was 15 μM, and final ATP concentration was 12 μM.

Sequence of JAK2 (O60674 whole entry): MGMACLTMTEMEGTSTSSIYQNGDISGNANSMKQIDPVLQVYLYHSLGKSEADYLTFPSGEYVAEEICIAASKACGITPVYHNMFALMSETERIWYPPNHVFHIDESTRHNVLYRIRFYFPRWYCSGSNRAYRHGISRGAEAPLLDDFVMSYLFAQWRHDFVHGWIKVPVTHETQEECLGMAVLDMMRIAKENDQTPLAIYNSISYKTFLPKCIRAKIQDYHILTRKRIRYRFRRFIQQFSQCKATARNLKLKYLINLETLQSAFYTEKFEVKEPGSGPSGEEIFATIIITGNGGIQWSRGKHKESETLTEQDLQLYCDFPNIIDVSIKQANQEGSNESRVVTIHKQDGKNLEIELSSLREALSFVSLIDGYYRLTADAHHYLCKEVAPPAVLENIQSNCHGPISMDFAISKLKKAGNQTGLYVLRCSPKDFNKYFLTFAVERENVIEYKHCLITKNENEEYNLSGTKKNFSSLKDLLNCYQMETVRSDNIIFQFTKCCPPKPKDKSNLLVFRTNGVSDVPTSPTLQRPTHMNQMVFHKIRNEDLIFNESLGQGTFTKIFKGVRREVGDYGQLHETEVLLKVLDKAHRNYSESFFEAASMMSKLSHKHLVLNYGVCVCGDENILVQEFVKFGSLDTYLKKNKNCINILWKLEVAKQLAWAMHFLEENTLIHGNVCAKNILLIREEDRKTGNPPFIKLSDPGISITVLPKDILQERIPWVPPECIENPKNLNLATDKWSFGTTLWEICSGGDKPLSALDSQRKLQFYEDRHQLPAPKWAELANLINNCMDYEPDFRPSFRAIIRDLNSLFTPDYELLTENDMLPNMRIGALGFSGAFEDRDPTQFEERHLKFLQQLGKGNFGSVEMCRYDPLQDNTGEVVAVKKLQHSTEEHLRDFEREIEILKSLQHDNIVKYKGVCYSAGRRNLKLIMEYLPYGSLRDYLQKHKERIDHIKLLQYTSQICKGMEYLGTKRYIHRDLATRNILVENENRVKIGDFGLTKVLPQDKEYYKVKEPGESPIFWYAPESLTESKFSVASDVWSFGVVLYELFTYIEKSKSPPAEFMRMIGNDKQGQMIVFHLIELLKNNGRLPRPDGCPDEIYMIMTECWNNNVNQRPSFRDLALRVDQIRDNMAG

Compound	pKi (JAK3)	pKi (JAK2)
CC(CC(=O)Nc1nc(-c2ncnc3[nH]ccc23)cs1)CC(C)(C)C (centres unmarked) [Compound 33]	6.30 to 7.00	> 7.00
O=C(Nc1nc(-c2ncnc3[nH]ccc23)cs1)C1CCCOC1 (centres unmarked) [Compound 61]	> 7.00	> 7.00
N#CCCN(C(=O)c1cc(-c2ncnc3[nH]ccc23)c[nH]1)C1CCCC1 [Compound 139]	6.30 to 7.00	> 7.00
O=C(O)C1CCCCC1C(=O)Nc1nc(-c2ncnc3[nH]ccc23)cs1 (centres unmarked) [Compound 144]	6.30 to 7.00	6.30 to 7.00

Next, values leading:

pKi (JAK3)	pKi (JAK2)	Compound
> 7.00	> 7.00	O=C(c1cc(-c2ncnc3[nH]ccc23)c[nH]1)N(CCC(F)(F)F)CC1CC1 [Compound 110]
6.30 to 7.00	6.30 to 7.00	O=C(O)CC1(CC(=O)Nc2nc(-c3ncnc4[nH]ccc34)cs2)CCCC1 [Compound 143]
6.30 to 7.00	> 7.00	O=C(Cc1ccccc1F)Nc1nc(-c2ncnc3[nH]ccc23)cs1 [Compound 156]
